Source: patent publication US20140350273A1, “PEDIATRIC USES OF CABAZITAXEL” (AVENTIS PHARMA S.A., priority 2012, published 2014)
Like-named read-outs stand apart in the source and are kept apart here.

System: human Ewing's sarcoma TC-71
Format: in vivo
Conditions: for Average body weight change in % per mouse at nadir / Biological interpretation / Drug death / Regressions Complete / Regressions Partial / Tumor free survivors at day 120 / day of nadir / ΔT/ΔC in % (day 21): 16
Protocol: This efficacy may be quantified, for example, as changes in tumor volume for each treated (T) and control (C) group, which are calculated for each animal and each day by subtracting the tumor volume on the day of first treatment (staging day) from the tumor volume on the specified observation day. This allows calculating the tumor growth inhibition: ΔT/ΔC=(median delta T/median delta C)×100. Individual tumor volume changes from baseline are thereafter analyzed by a non-parametric two-way ANOVA-TYPE (with factors: group and repeated days) followed by a post-hoc contrasts analysis, with Bonferroni-Holm adjustment for multiplicity, comparing all treated groups to the control group. […] A probability less than 5% (p<0.05) was considered as significant.
Based on the National Cancer Institute (NCl) standards, a ΔT/ΔC≦40% is the minimal level required to declare activity.
The tumor doubling time (in days; Td) was estimated from the plot of the log linear growth of the control group tumors in exponential growth (100 to 1000 mm^3 range) [T. H. Corbett et al., Cancer, 40: 2660-2680 (1977); F. M. Schabel et al., Cancer Drug Development, Part B, Methods in Cancer Research, 17: 3-51, New York, Academic Press Inc. (1979)].
This efficacy may also be quantified by the number of tumor regressions observed after therapy. Individual mice reporting a tumor volume ≦50% of the Day 0 measurement for two consecutive measurements over a seven day period were considered partial responders (PR). Individual mice lacking palpable tumors (<4×4 mm^2 for two consecutive measurements over a seven day period) were classified as complete responders (CR); a CR that persisted until study completion was considered a tumor-free survivor (TFS).
The animals subjected to the experiment are subcutaneously grafted unilaterally with approximately 30 mg of a tumor fragment on day 0. The animals are implanted with a human tumor xenografted in immunocompromized mice. Several days post tumor implantation, mice are randomized according to their body weight to the different groups of treatments and controls. The animals are observed every day. […] The groups are then weighed once or twice a week until the end of the trial.
The tumors are measured 1 to 5 times a week, depending on the tumor doubling time, until the tumor reaches approximately 1,000 mm^3, or until the animal dies (if this occurs before the tumor reaches 1,000 mm^3). The animals are necropsied immediately after euthanasia or death.
The selected tumor model was a human Ewing's sarcoma TC-71, xenografted in SCID mice [Whang-Peng J, et al. Cancer Genet Cytogenet. 1986 Apr. 1; 21(3):185208].
Treatment solutions were prepared first by mixing 1 volume of ethanolic stock solution and 1 volume of polysorbate 80, then by adding 18 volumes of glucose 5% in water.

[1] = 3.5 mg/kg per injection (total 7.0) IV days 12
[2] = 5.6 mg/kg per injection (total 11.2) IV days 12
[3] = 5.6 mg/kg per injection (total 11.2) IV days 12, listed as CABAZITAXEL
[4] = 9.0 mg/kg per injection (total 18) IV days 12
[5] = 9.0 mg/kg per injection (total 18) IV days 12, listed as CABAZITAXEL
[6] = 14.5 mg/kg per injection (total 29) IV days 12
[7] = 14.5 mg/kg per injection (total 29) IV days 12, listed as CABAZITAXEL
[8] = 3.5 mg/kg per injection (total 7.0) IV days 12, listed as DOCETAXEL
[9] = 3.5 mg/kg per injection (total 7.0) IV days 12, listed as docetaxel
[10] = 9.0 mg/kg per injection (total 18) IV days 12, listed as DOCETAXEL
[11] = 9.0 mg/kg per injection (total 18) IV days 12, listed as docetaxel
[12] = 14.5 mg/kg per injection (total 29) IV days 12, listed as DOCETAXEL

Structure (SMILES): CO[C@H]1C(=O)[C@]2(C)[C@@H](OC)C[C@H]3OC[C@@]3(OC(C)=O)[C@H]2[C@H](OC(=O)c2ccccc2)[C@]2(O)C[C@H](OC(=O)[C@H](O)[C@@H](NC(=O)OC(C)(C)C)c3ccccc3)C(C)=C1C2(C)C [Cabazitaxel, 4α-acetoxy-2α-benzoyloxy-5β,20-epoxy-1β-hydroxy-7β,10β-dimethoxy-9-oxo-11-taxen-13α-yl (2R,3S)-3-tert-butoxycarbonyl-amino-2-hydroxy-3-phenylpropionate]
- Average body weight change in % per mouse at nadir [1]: −2.3%
- Biological interpretation [1]: active
- Drug death [1]: 0/7
- Regressions Complete [1]: 0/7
- Regressions Partial [1]: 0/7
- Tumor free survivors at day 120 [1]: 0/7
- day of nadir [1]: 21 days
- ΔT/ΔC in % (day 21) [1]: 27%
- Biological interpretation (3.5 mg/kg per injection (total 7.0) IV days 12, listed as CABAZITAXEL): Active
- Average body weight change in % per mouse at nadir [2]: −7.0%
- Drug death [2]: 0/7
- Regressions Complete [2]: 0/7
- Regressions Partial [2]: 6/7
- Tumor free survivors at day 120 [2]: 0/7
- day of nadir [2]: 18 days
- Biological interpretation [3]: Highly Active
- ΔT/ΔC in % (day 21) [3]: <0%
- Biological interpretation (5.6 mg/kg per injection (total 11.2) IV days 12, listed as cabazitaxel): highly active
- Tumor volume changes from baseline: Median (nMad) (5.6 mg/kg, day 26): −162 (65.2)
- Average body weight change in % per mouse at nadir [4]: −7.0%
- Drug death [4]: 0/7
- Regressions Complete [4]: 6/7
- Regressions Partial [4]: 7/7
- Tumor free survivors at day 120 [4]: 6/7
- day of nadir [4]: 18 days
- Biological interpretation [5]: Highly Active
- ΔT/ΔC in % (day 21) [5]: <0%
- Biological interpretation (9.0 mg/kg per injection (total 18) IV days 12, listed as cabazitaxel): highly active
- Tumor volume changes from baseline: Median (nMad) (9 mg/kg, day 26): −196 (51.9)
- Tumor volume changes from baseline: Median (nMad) (9 mg/kg, day 28): −196 (50.4)
- Tumor volume changes from baseline: Median (nMad) (9 mg/kg, day 30): −196 (50.4)
- Tumor volume changes from baseline: Median (nMad) (9 mg/kg, day 34): −196 (72.6)
- Average body weight change in % per mouse at nadir [6]: −9.0%
- Drug death [6]: 0/7
- Regressions Complete [6]: 7/7
- Regressions Partial [6]: 7/7
- Tumor free survivors at day 120 [6]: 6/7
- day of nadir [6]: 23 days
- Biological interpretation [7]: Highly Active
- ΔT/ΔC in % (day 21) [7]: <0%
- Biological interpretation (14.5 mg/kg per injection (total 29) IV days 12, listed as cabazitaxel): highly active
- Tumor volume changes from baseline: Median (nMad) (14.5 mg/kg, day 26): −184 (43)
- Tumor volume changes from baseline: Median (nMad) (14.5 mg/kg, day 28): −194 (47.4)
- Tumor volume changes from baseline: Median (nMad) (14.5 mg/kg, day 30): −198 (53.4)
- Tumor volume changes from baseline: Median (nMad) (14.5 mg/kg, day 34): −198 (53.4)
- Tumor volume changes from baseline: Median (nMad) (14.5 mg/kg, day 36): −180 (53.4)
- Tumor volume changes from baseline: Median (nMad) (14.5 mg/kg, day 40): −180 (53.4)
- antitumor activity compared with docetaxel (conclusion of example 2): more active than docetaxel

Structure (SMILES): CC(=O)O[C@@]12CO[C@@H]1C[C@H](O)[C@@]1(C)C(=O)[C@H](O)C3=C(C)[C@@H](OC(=O)[C@H](O)[C@@H](NC(=O)OC(C)(C)C)c4ccccc4)C[C@@](O)([C@@H](OC(=O)c4ccccc4)[C@H]21)C3(C)C [Docetaxel, docetaxel]
- Average body weight change in % per mouse at nadir [1]: −1.8%
- Drug death [1]: 0/7
- Regressions Complete [1]: 0/7
- Regressions Partial [1]: 0/7
- Tumor free survivors at day 120 [1]: 0/7
- day of nadir [1]: 13 days
- Biological interpretation [8]: Inactive
- ΔT/ΔC in % (day 21) [8]: 77%
- Biological interpretation [9]: inactive
- ΔT/ΔC in % (day 21) [9]: > 40%
- Tumor volume changes from baseline: Median (nMad) (3.5 mg/kg, day 19): 629
- Tumor volume changes from baseline: Median (nMad) (3.5 mg/kg, day 21): 1044
- Average body weight change in % per mouse at nadir [2]: −13.7%
- Drug death [2]: 0/7
- Regressions Complete [2]: 0/7
- Regressions Partial [2]: 0/7
- Tumor free survivors at day 120 [2]: 0/7
- day of nadir [2]: 22 days
- ΔT/ΔC in % (day 21) [2]: 31%
- Biological interpretation (5.6 mg/kg per injection (total 11.2) IV days 12, listed as DOCETAXEL): Active
- Biological interpretation (5.6 mg/kg per injection (total 11.2) IV days 12, listed as docetaxel): active
- Tumor volume changes from baseline: Median (nMad) (5.6 mg/kg, day 19): 371
- Tumor volume changes from baseline: Median (nMad) (5.6 mg/kg, day 21): 416
- Tumor volume changes from baseline: Median (nMad) (5.6 mg/kg, day 26): 1022.5
- Average body weight change in % per mouse at nadir [4]: −10.8%
- Drug death [4]: 0/7
- Regressions Complete [4]: 0/7
- Tumor free survivors at day 120 [4]: 0/7
- day of nadir [4]: 23 days
- Biological interpretation [10]: Highly Active
- Regressions Partial [10]: 2/7
- ΔT/ΔC in % (day 21) [10]: <0%
- Biological interpretation [11]: highly active
- Regressions Partial [11]: 5/7
- Tumor volume changes from baseline: Median (nMad) (9 mg/kg, day 19): 139
- Tumor volume changes from baseline: Median (nMad) (9 mg/kg, day 21): −36
- Tumor volume changes from baseline: Median (nMad) (9 mg/kg, day 26): 158
- Tumor volume changes from baseline: Median (nMad) (9 mg/kg, day 30): 406 (252)
- Tumor volume changes from baseline: Median (nMad) (9 mg/kg, day 34): 867 (209)
- Average body weight change in % per mouse at nadir [6]: −12.4%
- Drug death [6]: 0/7
- Regressions Complete [6]: 2/7
- Regressions Partial [6]: 6/7
- Tumor free survivors at day 120 [6]: 1/7
- day of nadir [6]: 23 days
- Biological interpretation [12]: Highly Active
- ΔT/ΔC in % (day 21) [12]: <0%
- Biological interpretation (14.5 mg/kg per injection (total 29) IV days 12, listed as docetaxel): highly active
- Tumor volume changes from baseline: Median (nMad) (14.5 mg/kg, day 16): 154
- Tumor volume changes from baseline: Median (nMad) (14.5 mg/kg, day 19): −72
- Tumor volume changes from baseline: Median (nMad) (14.5 mg/kg, day 21): −130
- Tumor volume changes from baseline: Median (nMad) (14.5 mg/kg, day 26): −130
- Tumor volume changes from baseline: Median (nMad) (14.5 mg/kg, day 28): −144
- Tumor volume changes from baseline: Median (nMad) (14.5 mg/kg, day 30): −126
- Tumor volume changes from baseline: Median (nMad) (14.5 mg/kg, day 34): −49
- Tumor volume changes from baseline: Median (nMad) (14.5 mg/kg, day 36): 75 (330.6)
- Tumor volume changes from baseline: Median (nMad) (14.5 mg/kg, day 40): 763
